# PubChem BioAssay (NCI)
#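 Cells were grown in 96-well plates and exposed to each compound for 48 hours at five concentrations; endpoints were interpolated linearly between bracketing concentrations, or set to the highest concentration if not reached. TGI denotes the concentration required for complete inhibition of growth.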
# Tests used:
# Assay in all cases: DTP human tumour cell line panel, 48 h
# SNB-19 CNS = tested on: SNB-19 CNS
# HCT-15 colon = tested on: HCT-15 colon
# ACHN renal = tested on: ACHN renal
# COLO 205 colon = tested on: COLO 205 colon
# HL-60(TB) leukemia = tested on: HL-60(TB) leukemia
# NCI-H460 lung = tested on: NCI-H460 lung
# SF-295 CNS = tested on: SF-295 CNS
# SW-620 colon = tested on: SW-620 colon
# NCI-H23 lung = tested on: NCI-H23 lung
# MCF7 breast = tested on: MCF7 breast
# SR leukemia = tested on: SR leukemia
# MDA-MB-231 breast = tested on: MDA-MB-231 breast
# SF-268 CNS = tested on: SF-268 CNS
# HOP-62 NSCLC = tested on: HOP-62 NSCLC
# CCRF-CEM leukemia = tested on: CCRF-CEM leukemia
# RPMI-8226 leukemia = tested on: RPMI-8226 leukemia
# UO-31 renal = tested on: UO-31 renal
# OVCAR-4 ovarian = tested on: OVCAR-4 ovarian
# DU-145 prostate = tested on: DU-145 prostate
# OVCAR-8 ovarian = tested on: OVCAR-8 ovarian
# HCT-116 colon = tested on: HCT-116 colon
# MDA-MB-435 = tested on: MDA-MB-435
# HT29 colon = tested on: HT29 colon
# U251 CNS = tested on: U251 CNS
# NCI-H226 lung = tested on: NCI-H226 lung
# TK-10 renal = tested on: TK-10 renal
# MOLT-4 leukemia = tested on: MOLT-4 leukemia
# SK-MEL-28 melanoma = tested on: SK-MEL-28 melanoma
# LOX IMVI melanoma = tested on: LOX IMVI melanoma
# SK-MEL-2 melanoma = tested on: SK-MEL-2 melanoma
# CAKI-1 renal = tested on: CAKI-1 renal
# NCI-H522 lung = tested on: NCI-H522 lung
# SK-MEL-5 melanoma = tested on: SK-MEL-5 melanoma
# K-562 leukemia = tested on: K-562 leukemia
# UACC-257 melanoma = tested on: UACC-257 melanoma
# KM12 colon = tested on: KM12 colon
# T-47D breast = tested on: T-47D breast
# PC-3 prostate = tested on: PC-3 prostate
# IGROV1 ovarian = tested on: IGROV1 ovarian
# MDA-N = tested on: MDA-N
# A549 NSCLC = tested on: A549 NSCLC
# OVCAR-5 ovarian = tested on: OVCAR-5 ovarian
# HOP-92 NSCLC = tested on: HOP-92 NSCLC
# SNB-75 CNS = tested on: SNB-75 CNS
# NCI/ADR-RES ovarian = tested on: NCI/ADR-RES ovarian
# EKVX NSCLC = tested on: EKVX NSCLC
# SF-539 CNS = tested on: SF-539 CNS
# MALME-3M melanoma = tested on: MALME-3M melanoma
# SN12C renal = tested on: SN12C renal
# HCC-2998 colon = tested on: HCC-2998 colon
# OVCAR-3 ovarian = tested on: OVCAR-3 ovarian
# HS 578T breast = tested on: HS 578T breast
# 786-0 renal = tested on: 786-0 renal
# M14 melanoma = tested on: M14 melanoma
# RXF 393 renal = tested on: RXF 393 renal
# SK-OV-3 ovarian = tested on: SK-OV-3 ovarian
# A498 renal = tested on: A498 renal
smiles,measurement,setting,value
Cc1occc(=O)c1O,TGI,SNB-19 CNS,> 100 µM
same,TGI,HCT-15 colon,28.7 µM
same,TGI,ACHN renal,> 100 µM
same,TGI,COLO 205 colon,> 100 µM
same,TGI,HL-60(TB) leukemia,> 100 µM
same,TGI,NCI-H460 lung,> 100 µM
same,TGI,SF-295 CNS,> 100 µM
same,TGI,SW-620 colon,> 100 µM
same,TGI,NCI-H23 lung,> 100 µM
same,TGI,MCF7 breast,> 100 µM
same,TGI,SR leukemia,> 100 µM
same,TGI,MDA-MB-231 breast,16.4 µM
same,TGI,SF-268 CNS,> 100 µM
same,TGI,HOP-62 NSCLC,> 100 µM
same,TGI,CCRF-CEM leukemia,> 100 µM
same,TGI,RPMI-8226 leukemia,> 100 µM
same,TGI,UO-31 renal,> 100 µM
same,TGI,OVCAR-4 ovarian,> 100 µM
same,TGI,DU-145 prostate,> 100 µM
same,TGI,OVCAR-8 ovarian,> 100 µM
same,TGI,HCT-116 colon,> 100 µM
same,TGI,MDA-MB-435,> 100 µM
same,TGI,HT29 colon,> 100 µM
same,TGI,U251 CNS,> 100 µM
same,TGI,NCI-H226 lung,> 100 µM
same,TGI,TK-10 renal,> 100 µM
same,TGI,MOLT-4 leukemia,> 100 µM
same,TGI,SK-MEL-28 melanoma,> 100 µM
same,TGI,LOX IMVI melanoma,> 100 µM
same,TGI,SK-MEL-2 melanoma,> 100 µM
same,TGI,CAKI-1 renal,> 100 µM
same,TGI,NCI-H522 lung,> 100 µM
same,TGI,SK-MEL-5 melanoma,> 100 µM
same,TGI,K-562 leukemia,> 100 µM
same,TGI,UACC-257 melanoma,> 100 µM
same,TGI,KM12 colon,> 100 µM
same,TGI,T-47D breast,> 100 µM
same,TGI,PC-3 prostate,> 100 µM
same,TGI,IGROV1 ovarian,> 100 µM
same,TGI,MDA-N,> 100 µM
same,TGI,A549 NSCLC,> 100 µM
same,TGI,OVCAR-5 ovarian,> 100 µM
same,TGI,HOP-92 NSCLC,> 100 µM
same,TGI,SNB-75 CNS,> 100 µM
same,TGI,NCI/ADR-RES ovarian,> 100 µM
same,TGI,EKVX NSCLC,> 100 µM
same,TGI,SF-539 CNS,> 100 µM
same,TGI,MALME-3M melanoma,> 100 µM
same,TGI,SN12C renal,24.8 µM
same,TGI,HCC-2998 colon,> 100 µM
same,TGI,OVCAR-3 ovarian,> 100 µM
same,TGI,HS 578T breast,> 100 µM
same,TGI,786-0 renal,> 100 µM
same,TGI,M14 melanoma,> 100 µM
CCCCCCCCCCCC1=NCCN1,TGI,SNB-19 CNS,> 100 µM
same,TGI,HCT-15 colon,32.7 µM
same,TGI,RXF 393 renal,> 100 µM
same,TGI,ACHN renal,> 100 µM
same,TGI,COLO 205 colon,35.4 µM
same,TGI,NCI-H460 lung,> 100 µM
same,TGI,SF-295 CNS,> 100 µM
same,TGI,SW-620 colon,> 100 µM
same,TGI,SK-OV-3 ovarian,> 100 µM
same,TGI,NCI-H23 lung,> 100 µM
same,TGI,MCF7 breast,> 100 µM
same,TGI,A498 renal,43.2 µM
same,TGI,SR leukemia,48 µM
same,TGI,MDA-MB-231 breast,68.9 µM
same,TGI,SF-268 CNS,> 100 µM
same,TGI,CCRF-CEM leukemia,75.4 µM
same,TGI,UO-31 renal,95.1 µM
same,TGI,OVCAR-4 ovarian,38.7 µM
same,TGI,DU-145 prostate,> 100 µM
same,TGI,OVCAR-8 ovarian,> 100 µM
same,TGI,HCT-116 colon,> 100 µM
same,TGI,MDA-MB-435,> 100 µM
same,TGI,HT29 colon,> 100 µM
same,TGI,U251 CNS,> 100 µM
same,TGI,NCI-H226 lung,> 100 µM
same,TGI,TK-10 renal,> 100 µM
same,TGI,MOLT-4 leukemia,60.5 µM
same,TGI,SK-MEL-28 melanoma,> 100 µM
same,TGI,LOX IMVI melanoma,22.9 µM
same,TGI,NCI-H522 lung,67.5 µM
same,TGI,SK-MEL-5 melanoma,> 100 µM
same,TGI,K-562 leukemia,> 100 µM
same,TGI,UACC-257 melanoma,> 100 µM
same,TGI,KM12 colon,> 100 µM
same,TGI,T-47D breast,> 100 µM
same,TGI,PC-3 prostate,44.1 µM
same,TGI,MDA-N,> 100 µM
same,TGI,A549 NSCLC,> 100 µM
same,TGI,HOP-92 NSCLC,> 100 µM
same,TGI,SNB-75 CNS,92.3 µM
same,TGI,NCI/ADR-RES ovarian,> 100 µM
same,TGI,SN12C renal,> 100 µM
same,TGI,HCC-2998 colon,39 µM
same,TGI,OVCAR-3 ovarian,> 100 µM
same,TGI,HS 578T breast,> 100 µM
same,TGI,M14 melanoma,> 100 µM
CC(C)=CCC/C(C)=C\CC/C(C)=C/CO,TGI,SNB-19 CNS,65.6 µM
same,TGI,HCT-15 colon,> 100 µM
same,TGI,ACHN renal,70.7 µM
same,TGI,COLO 205 colon,> 100 µM
same,TGI,HL-60(TB) leukemia,35.4 µM
same,TGI,NCI-H460 lung,> 10 µM
same,TGI,SF-295 CNS,57.2 µM
same,TGI,SW-620 colon,> 100 µM
same,TGI,NCI-H23 lung,62.2 µM
same,TGI,MCF7 breast,38.2 µM
same,TGI,SR leukemia,47.6 µM
same,TGI,MDA-MB-231 breast,> 100 µM
same,TGI,SF-268 CNS,> 100 µM
same,TGI,HOP-62 NSCLC,40.3 µM
same,TGI,CCRF-CEM leukemia,43.7 µM
same,TGI,RPMI-8226 leukemia,36.9 µM
same,TGI,UO-31 renal,> 100 µM
same,TGI,OVCAR-4 ovarian,50.4 µM
same,TGI,DU-145 prostate,> 100 µM
same,TGI,OVCAR-8 ovarian,48.7 µM
same,TGI,HCT-116 colon,36.9 µM
same,TGI,MDA-MB-435,38.3 µM
same,TGI,HT29 colon,37.6 µM
same,TGI,U251 CNS,33.3 µM
same,TGI,NCI-H226 lung,> 100 µM
same,TGI,TK-10 renal,> 100 µM
same,TGI,MOLT-4 leukemia,42.9 µM
same,TGI,SK-MEL-28 melanoma,> 100 µM
same,TGI,LOX IMVI melanoma,> 10 µM
same,TGI,SK-MEL-2 melanoma,30.4 µM
same,TGI,CAKI-1 renal,> 10 µM
same,TGI,NCI-H522 lung,27.2 µM
same,TGI,SK-MEL-5 melanoma,61.8 µM
same,TGI,K-562 leukemia,42.2 µM
same,TGI,UACC-257 melanoma,> 100 µM
same,TGI,KM12 colon,> 100 µM
same,TGI,T-47D breast,> 100 µM
same,TGI,PC-3 prostate,> 100 µM
same,TGI,IGROV1 ovarian,55.9 µM
same,TGI,MDA-N,> 100 µM
same,TGI,A549 NSCLC,> 100 µM
same,TGI,OVCAR-5 ovarian,> 100 µM
same,TGI,HOP-92 NSCLC,22.7 µM
same,TGI,SNB-75 CNS,> 100 µM
same,TGI,NCI/ADR-RES ovarian,42.6 µM
same,TGI,EKVX NSCLC,> 100 µM
same,TGI,SF-539 CNS,47.8 µM
same,TGI,MALME-3M melanoma,32.3 µM
same,TGI,SN12C renal,> 100 µM
same,TGI,HCC-2998 colon,43.1 µM
same,TGI,OVCAR-3 ovarian,30.4 µM
same,TGI,HS 578T breast,67.9 µM
same,TGI,786-0 renal,31.1 µM
same,TGI,M14 melanoma,37.2 µM
